From US9149038B2, “4-amino-6-(heterocyclic)picolinates and 6-amino-2-(heterocyclic)pyrimidine-4-carboxylates and their use as herbicides” (Dow AgroSciences LLC, priority 2013, dated 2015)
Where two headings read alike, the source gives them in different places.

System: Wheat and Barley and weed species
Experiment: Post-Emergent Test III: postemergent herbicidal activity in wheat and barley, visual rating after 21 d and probit GR20/GR50/GR80/GR90 (Tables 9-13)
Assay type: in vivo
Conditions: for GR50 ALOMY / GR50 APESV / GR50 KCHSC / GR50 LOLSS / GR50 SETVI: growth reduction of 50%; for GR50 ALOMY / GR80 ALOMY / GR90 ALOMY / GR50 APESV / GR80 APESV / GR90 APESV / GR20 HORVS / GR50 KCHSC / GR80 KCHSC / GR90 KCHSC / GR50 LOLSS / GR80 LOLSS / GR90 LOLSS / GR50 SETVI / GR80 SETVI / GR90 SETVI / GR20 TRZAS: probit analysis; for GR80 ALOMY / GR80 APESV / GR80 KCHSC / GR80 LOLSS / GR80 SETVI: growth reduction of 80%; for GR90 ALOMY / GR90 APESV / GR90 KCHSC / GR90 LOLSS / GR90 SETVI: growth reduction of 90%; for GR20 HORVS / GR20 TRZAS: growth reduction of 20%; for pest or weed control at 17.5 g/ha / pest or weed control at 35 g/ha / pest or weed control at 70 g/ha: post-emergence, 504 h; for Visual Growth Reduction (%) 21 Days After Application KCHSC / GR50 KCHSC / GR80 KCHSC / GR90 KCHSC: KCHSC kochia (Kochia scoparia)
From the text: Herbicidal evaluations were made visually on a scale of 0 to 100 where 0 represents no activity and 100 represents complete plant death.
Seeds of the desired test plant species were planted in Sun Gro MetroMix® 306 planting mixture, which typically has a pH of 6.0 to 6.8 and an organic matter content of about 30 percent, in plastic pots with a surface area of 103.2 square centimeters (cm^2). When required to ensure good germination and healthy plants, a fungicide treatment and/or other chemical or physical treatment was applied. The plants were grown for 7-36 days (d) in a greenhouse with an approximate 14 hour (h) photoperiod which was maintained at about 18° C. during the day and 17° C. during the night. Nutrients and water were added on a regular basis and supplemental lighting was provided with overhead metal halide 1000-Watt lamps as necessary. The plants were employed for testing when they reached the second or third true leaf stage.
A weighed amount, determined by the highest rate to be tested, of each test compound was placed in a 25 mL glass vial and was dissolved in 4 mL of a 97:3 v/v mixture of acetone and DMSO to obtain concentrated stock solutions. […] The concentrated stock solutions obtained were diluted with 20 mL of an aqueous mixture containing acetone, water, isopropyl alcohol, DMSO, Agri-Dex crop oil concentrate, and X-77 surfactant in a 48:39:10:1.5:1.5:0.02 v/v ratio to obtain spray solutions containing the highest application rates. Additional application rates were obtained by serial dilution of 12 mL of the high rate solution into a solution containing 2 mL of a 97:3 v/v mixture of acetone and DMSO and 10 mL of an aqueous mixture containing acetone, water, isopropyl alcohol, DMSO, Agri-Dex crop oil concentrate, and X-77 surfactant in a 48:39:10:1.5:1.5:0.02 v/v ratio to obtain ½×, ¼×, ⅛× and 1/16× rates of the high rate. Compound requirements are based upon a 12 mL application volume at a rate of 187 liters per hectare (L/ha). Formulated compounds were applied to the plant material with an overhead Mandel track sprayer equipped with 8002E nozzles calibrated to deliver 187 L/ha over an application area of 0.503 square meters at a spray height of 18 inches (43 cm) above the average plant canopy height. Control plants were sprayed in the same manner with the solvent blank.
The treated plants and control plants were placed in a greenhouse as described above and watered by subirrigation to prevent wash-off of the test compounds. After 21 d, the condition of the test plants as compared with that of the untreated plants was determined visually and scored on a scale of 0 to 100 percent where 0 corresponds to no injury and 100 corresponds to complete kill and are presented as indicated in Table 4.
By applying the well-accepted probit analysis as described by J. Berkson in Journal of the American Statistical Society, 48, 565 (1953) and by D. Finney in “Probit Analysis” Cambridge University Press (1952), herbicidal injury of a specific compound at various rates can be used to calculate GR20, GR50, GR80 and GR90 values, which are defined as growth reduction factors that correspond to the effective dose of herbicide required to provide plant growth reduction (GR) of 20 percent, 50 percent, 80 percent and 90 percent, respectively. Probit analysis was applied to data collected from multiple dose rates of individual compounds utilizing the procedures explained in the following examples. The data for some of the dose rates and analysis of all of the dose rates are captured in the following tables.

[1] = ALOMY black-grass (Alopecurus myosuroides)
[2] = APESV bentgrass (Apera spica-venti)
[3] = Hordeum vulgare, HORVS barley, spring (crop), 17.5 g ai/ha, read-out: Visual Growth Reduction (%) 21 Days After Application HORVS
[4] = Hordeum vulgare, HORVS barley, spring (crop), 35 g ai/ha, read-out: Visual Growth Reduction (%) 21 Days After Application HORVS
[5] = Hordeum vulgare, HORVS barley, spring (crop), 70 g ai/ha, read-out: Visual Growth Reduction (%) 21 Days After Application HORVS
[6] = SETVI green foxtail (Setaria viridis)
[7] = Triticum aestivum, TRZAS wheat, spring (crop), 17.5 g ai/ha, read-out: Visual Growth Reduction (%) 21 Days After Application TRZAS
[8] = Triticum aestivum, TRZAS wheat, spring (crop), 35 g ai/ha, read-out: Visual Growth Reduction (%) 21 Days After Application TRZAS
[9] = Triticum aestivum, TRZAS wheat, spring (crop), 70 g ai/ha, read-out: Visual Growth Reduction (%) 21 Days After Application TRZAS
[10] = ALOMY black-grass (Alopecurus myosuroides), 17.5 g ai/ha, read-out: Visual Growth Reduction (%) 21 Days After Application ALOMY
[11] = ALOMY black-grass (Alopecurus myosuroides), 35 g ai/ha, read-out: Visual Growth Reduction (%) 21 Days After Application ALOMY
[12] = ALOMY black-grass (Alopecurus myosuroides), 70 g ai/ha, read-out: Visual Growth Reduction (%) 21 Days After Application ALOMY
[13] = APESV bentgrass (Apera spica-venti), 17.5 g ai/ha, read-out: Visual Growth Reduction (%) 21 Days After Application APESV
[14] = APESV bentgrass (Apera spica-venti), 35 g ai/ha, read-out: Visual Growth Reduction (%) 21 Days After Application APESV
[15] = APESV bentgrass (Apera spica-venti), 70 g ai/ha, read-out: Visual Growth Reduction (%) 21 Days After Application APESV
[16] = LOLSS ryegrass, 17.5 g ai/ha, read-out: Visual Growth Reduction (%) 21 Days After Application LOLSS
[17] = LOLSS ryegrass, 35 g ai/ha, read-out: Visual Growth Reduction (%) 21 Days After Application LOLSS
[18] = LOLSS ryegrass, 70 g ai/ha, read-out: Visual Growth Reduction (%) 21 Days After Application LOLSS
[19] = SETVI green foxtail (Setaria viridis), 17.5 g ai/ha, read-out: Visual Growth Reduction (%) 21 Days After Application SETVI
[20] = SETVI green foxtail (Setaria viridis), 35 g ai/ha, read-out: Visual Growth Reduction (%) 21 Days After Application SETVI
[21] = SETVI green foxtail (Setaria viridis), 70 g ai/ha, read-out: Visual Growth Reduction (%) 21 Days After Application SETVI

In the case of `COC(=O)c1nc(-c2ccc3c(c2)OC(C)(C)O3)c(F)c(N)c1Cl` [Compound 8], the “GR50 ALOMY” value [1] was over 70 g ai/ha, the “GR80 ALOMY” value [1] was over 70 g ai/ha and the “GR90 ALOMY” value [1] was over 70 g ai/ha. The “GR50 APESV” value [2] was 22 g ai/ha, the “GR80 APESV” value [2] was 36 g ai/ha and the “GR90 APESV” value [2] was 46 g ai/ha. For the same compound, the “GR20 HORVS” value (HORVS barley, spring (crop)) was 7 g ai/ha, the pest or weed control at 17.5 g/ha [3] was 30 to 44% and the pest or weed control at 35 g/ha [4] was 60 to 74%. The pest or weed control at 70 g/ha [5] was 60 to 74%, the “Visual Growth Reduction (%) 21 Days After Application KCHSC” value (17.5 g ai/ha) was “E (45-59)” and the “Visual Growth Reduction (%) 21 Days After Application KCHSC” value (35 g ai/ha) was “D (60-74)”. For the same compound, the “Visual Growth Reduction (%) 21 Days After Application KCHSC” value (70 g ai/ha) was “D (60-74)”, the “GR50 KCHSC” value was 21 g ai/ha and the “GR80 KCHSC” value was over 70 g ai/ha. For the same compound, the “GR90 KCHSC” value was over 70 g ai/ha, the “GR50 LOLSS” value (LOLSS ryegrass) was over 70 g ai/ha and the “GR80 LOLSS” value (LOLSS ryegrass) was over 70 g ai/ha. The “GR90 LOLSS” value (LOLSS ryegrass) was over 70 g ai/ha, the “GR50 SETVI” value [6] was 11 g ai/ha and the “GR80 SETVI” value [6] was 72 g ai/ha. The “GR90 SETVI” value [6] was over 70 g ai/ha, the “GR20 TRZAS” value (TRZAS wheat, spring (crop)) was 6 g ai/ha and the pest or weed control at 17.5 g/ha [7] was 30 to 44%. The pest or weed control at 35 g/ha [8] was 60 to 74%, the pest or weed control at 70 g/ha [9] was 60 to 74% and the pest or weed control at 17.5 g/ha [10] was 0 to 29%. It also gave a pest or weed control at 35 g/ha [11] of 30 to 44%, a pest or weed control at 70 g/ha [12] of 45 to 59% and a pest or weed control at 17.5 g/ha [13] of 0 to 29%. It also gave a pest or weed control at 35 g/ha [14] of 85 to 94%, a pest or weed control at 70 g/ha [15] of 85 to 94% and a pest or weed control at 17.5 g/ha [16] of 0 to 29%. The pest or weed control at 35 g/ha [17] was 0 to 29%, the pest or weed control at 70 g/ha [18] was 30 to 44% and the pest or weed control at 17.5 g/ha [19] was 60 to 74%. For the same compound, the pest or weed control at 35 g/ha [20] was 75 to 84% and the pest or weed control at 70 g/ha [21] was 75 to 84%.

In the case of `COC(=O)c1nc(-c2cc3c(cc2F)OC(F)(F)O3)c(F)c(N)c1Cl` [Compound 9], the “GR50 ALOMY” value [1] was 13 g ai/ha, the “GR80 ALOMY” value [1] was 26 g ai/ha and the “GR90 ALOMY” value [1] was 38 g ai/ha. For the same compound, the “GR50 APESV” value [2] was 30 g ai/ha, the “GR80 APESV” value [2] was 61 g ai/ha and the “GR90 APESV” value [2] was 89 g ai/ha. The “GR20 HORVS” value (HORVS barley, spring (crop)) was 3 g ai/ha, the pest or weed control at 17.5 g/ha [3] was 60 to 74% and the pest or weed control at 35 g/ha [4] was 85 to 94%. The pest or weed control at 70 g/ha [5] was 85 to 94%, the “Visual Growth Reduction (%) 21 Days After Application KCHSC” value (17.5 g ai/ha) was “G (0-29)” and the “Visual Growth Reduction (%) 21 Days After Application KCHSC” value (35 g ai/ha) was “G (0-29)”. The “Visual Growth Reduction (%) 21 Days After Application KCHSC” value (70 g ai/ha) was “G (0-29)”, the “GR50 KCHSC” value was over 70 g ai/ha and the “GR80 KCHSC” value was over 70 g ai/ha. For the same compound, the “GR90 KCHSC” value was over 70 g ai/ha, the “GR50 LOLSS” value (LOLSS ryegrass) was 70 g ai/ha and the “GR80 LOLSS” value (LOLSS ryegrass) was over 70 g ai/ha. For the same compound, the “GR90 LOLSS” value (LOLSS ryegrass) was over 70 g ai/ha, the “GR50 SETVI” value [6] was 21 g ai/ha and the “GR80 SETVI” value [6] was 46 g ai/ha. The “GR90 SETVI” value [6] was 71 g ai/ha, the “GR20 TRZAS” value (TRZAS wheat, spring (crop)) was 4 g ai/ha and the pest or weed control at 17.5 g/ha [7] was 60 to 74%. The pest or weed control at 35 g/ha [8] was 75 to 84%, the pest or weed control at 70 g/ha [9] was 75 to 84% and the pest or weed control at 17.5 g/ha [10] was 75 to 84%. The pest or weed control at 35 g/ha [11] was 85 to 94%, the pest or weed control at 70 g/ha [12] was 85 to 94% and the pest or weed control at 17.5 g/ha [13] was 0 to 29%. For the same compound, the pest or weed control at 35 g/ha [14] was 60 to 74%, the pest or weed control at 70 g/ha [15] was 75 to 84% and the pest or weed control at 17.5 g/ha [16] was 0 to 29%. For the same compound, the pest or weed control at 35 g/ha [17] was 0 to 29%, the pest or weed control at 70 g/ha [18] was 45 to 59% and the pest or weed control at 17.5 g/ha [19] was 45 to 59%. The pest or weed control at 35 g/ha [20] was 75 to 84% and the pest or weed control at 70 g/ha [21] was 85 to 94%.
